# Target: human NAMPT enzyme (His-hNAMPT) (Homo sapiens (Human), UniProt P43490)
# Experiment: NAMPT enzymatic inhibition assay (fluorescence, NADH product)
# Format: biochemical
# Conditions: [BPS]; read-out: NAMPT IC50 (μM) [BPS]
# human NAMPT enzyme (His-hNAMPT), sequence (P43490 whole entry): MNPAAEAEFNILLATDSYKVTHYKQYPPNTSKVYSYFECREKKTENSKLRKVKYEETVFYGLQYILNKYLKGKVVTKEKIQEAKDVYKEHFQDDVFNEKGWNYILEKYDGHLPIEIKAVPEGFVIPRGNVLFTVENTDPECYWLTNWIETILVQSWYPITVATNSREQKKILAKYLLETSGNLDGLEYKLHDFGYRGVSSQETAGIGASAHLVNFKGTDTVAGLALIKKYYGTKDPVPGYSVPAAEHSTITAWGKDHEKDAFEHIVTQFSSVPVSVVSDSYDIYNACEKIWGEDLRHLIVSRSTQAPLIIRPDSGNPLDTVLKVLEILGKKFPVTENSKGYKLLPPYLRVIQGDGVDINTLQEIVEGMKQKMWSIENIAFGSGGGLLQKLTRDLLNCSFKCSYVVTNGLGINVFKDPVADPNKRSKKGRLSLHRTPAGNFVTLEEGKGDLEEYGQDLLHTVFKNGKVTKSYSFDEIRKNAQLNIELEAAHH
row,IC50 [µM],SMILES
1,0.5 to 0.99,"O=C(NCC[C@@H]1[C@H]2CN(C(=O)NC3CCOCC3)C[C@@H]12)c1cc2ccncc2o1 [Example 59, N-(2-((1R,5S,6s)-3-((tetrahydro-2H-pyran-4-yl)carbamoyl)-3-azabicyclo[3.1.0]hexan-6-yl)ethyl)furo[2,3-c]pyridine-2-carboxamide]"
2,0.01 to 0.49,"CCN(CC)C(=O)N1C[C@@H]2[C@@H](CCNC(=O)c3cc4ccncc4o3)[C@@H]2C1 [Example 60, N-(2-((1R,5S,6s)-3-(diethylcarbamoyl)-3-azabicyclo[3.1.0]hexan-6-yl)ethyl)furo[2,3-c]pyridine-2-carboxamide]"
3,0.01 to 0.49,"O=C(NCC[C@@H]1[C@H]2CN(C(=O)OC3CCOCC3)C[C@@H]12)c1cc2ccncc2o1 [Example 61, (1R,5S,6s)-3-tetrahydro-2H-pyran-4-yl 6-(2-(furo[2,3-c]pyridine-2-carboxamido)ethyl)-3-azabicyclo[3.1.0]hexane-3-carboxylate]"
4,1 to 29,"CC1(OC(=O)N2C[C@@H]3[C@@H](CCNC(=O)c4nc5ccncc5s4)[C@@H]3C2)COC1 [Example 62, (1R,5S,6s)-3-methyloxetan-3-yl 6-(2-(thiazolo[5,4-c]pyridine-2-carboxamido)ethyl)-3-azabicyclo[3.1.0]hexane-3-carboxylate]"
5,0.01 to 0.49,"O=C(NCC[C@@H]1[C@H]2CN(C(=O)c3ccccc3)C[C@@H]12)c1ccc2nccn2c1 [Example 63, N-(2-((1R,5S,6s)-3-benzoyl-3-azabicyclo[3.1.0]hexan-6-yl)ethyl)imidazo[1,2-a]pyridine-6-carboxamide]"
6,0.01 to 0.49,"CC(C)(C)NC(=O)N1C[C@@H]2[C@@H](CCNC(=O)c3ccc4nccn4c3)[C@@H]2C1 [Example 64, N-(2-((1R,5S,6s)-3-(tert-butylcarbamoyl)-3-azabicyclo[3.1.0]hexan-6-yl)ethyl)imidazo[1,2-a]pyridine-6-carboxamide]"
7,1 to 29,"O=C(NCC[C@@H]1[C@H]2CN(C(=O)Nc3ccccc3)C[C@@H]12)c1ccc2nccn2c1 [Example 65, N-(2-((1R,5S,6s)-3-(phenylcarbamoyl)-3-azabicyclo[3.1.0]hexan-6-yl)ethyl)imidazo[1,2-a]pyridine-6-carboxamide]"
8,1 to 29,"O=C(NCC[C@@H]1[C@H]2CN(C(=O)N3CCCC3)C[C@@H]12)c1ccc2nccn2c1 [Example 66, N-(2-((1R,5S,6s)-3-(pyrrolidine-1-carbonyl)-3-azabicyclo[3.1.0]hexan-6-yl)ethyl)imidazo[1,2-a]pyridine-6-carboxamide]"
9,0.01 to 0.49,"O=C(NCC[C@@H]1[C@H]2CN(C(=O)OC3CCOCC3)C[C@@H]12)c1ccc2nccn2c1 [Example 67, (1R,5S,6s)-tetrahydro-2H-pyran-4-yl 6-(2-(imidazo[1,2-a]pyridine-6-carboxamido)ethyl)-3-azabicyclo[3.1.0]hexane-3-carboxylate]"
10,1 to 29,"O=C(NCC[C@@H]1[C@H]2CN(S(=O)(=O)C3CCOCC3)C[C@@H]12)c1ccc2nccn2c1 [Example 68, N-(2-((1R,5S,6s)-3-((tetrahydro-2H-pyran-4-yl)sulfonyl)-3-azabicyclo[3.1.0]hexan-6-yl)ethyl)imidazo[1,2-a]pyridine-6-carboxamide]"
11,0.5 to 0.99,"CC(C)(C)CNC(=O)N1C[C@@H]2[C@@H](CCNC(=O)c3cc4ccncc4o3)[C@@H]2C1 [Example 69, N-(2-((1R,5S,6s)-3-(neopentylcarbamoyl)-3-azabicyclo[3.1.0]hexan-6-yl)ethyl)furo[2,3-c]pyridine-2-carboxamide]"
12,0.01 to 0.49,"O=C(NCC[C@@H]1[C@H]2CN(C(=O)N3CCCC3)C[C@@H]12)c1cc2ccncc2o1 [Example 70, N-(2-((1R,5S,6s)-3-(pyrrolidine-1-carbonyl)-3-azabicyclo[3.1.0]hexan-6-yl)ethyl)furo[2,3-c]pyridine-2-carboxamide]"
13,0.01 to 0.49,"O=C(NCC[C@@H]1[C@H]2CN(C(=O)OC3CCCC3)C[C@@H]12)c1cc2ccncc2o1 [Example 71, (1R,5S,6s)-(cyclopentyl) 6-(2-(furo[2,3-c]pyridine-2-carboxamido)ethyl)-3-azabicyclo[3.1.0]hexane-3-carboxylate]"
14,0.01 to 0.49,"O=C(NCC[C@@H]1[C@H]2CN(S(=O)(=O)c3ccc(F)cc3)C[C@@H]12)c1cc2ccncc2o1 [Example 72, N-(2-((1R,5S,6s)-3-((4-fluorophenyl)sulfonyl)-3-azabicyclo[3.1.0]hexan-6-yl)ethyl)furo[2,3-c]pyridine-2-carboxamide]"
15,1 to 29,"O=C(NCC[C@@H]1[C@H]2CN(S(=O)(=O)C3CCOCC3)C[C@@H]12)c1cc2ccncc2o1 [Example 73, N-(2-((1R,5S,6s)-3-((tetrahydro-2H-pyran-4-yl)sulfonyl)-3-azabicyclo[3.1.0]hexan-6-yl)ethyl)furo[2,3-c]pyridine-2-carboxamide]"
16,0.01 to 0.49,"CC1(OC(=O)N2C[C@@H]3[C@@H](CCNC(=O)c4cc5cc(N)ncc5s4)[C@@H]3C2)COC1 [Example 74, (1R,5S,6s)-3-methyloxetan-3-yl 6-(2-(5-aminothieno[2,3-c]pyridine-2-carboxamido)ethyl)-3-azabicyclo[3.1.0]hexane-3-carboxylate]"
17,0.01 to 0.49,"CC(C)(C)NC(=O)N1C[C@@H]2[C@@H](CCNC(=O)/C=C/c3cccnc3)[C@@H]2C1 [Example 75, (1R,5S,6s)-N-(tert-butyl)-6-(2-((E)-3-(pyridin-3-yl)acrylamido)ethyl)-3-azabicyclo[3.1.0]hexane-3-carboxamide]"
18,0.01 to 0.49,"O=C(NCC[C@@H]1[C@H]2CN(C(=O)c3ccccc3)C[C@@H]12)c1cnc2nccn2c1 [Example 76, N-(2-((1R,5S,6s)-3-benzoyl-3-azabicyclo[3.1.0]hexan-6-yl)ethyl)imidazo[1,2-a]pyrimidine-6-carboxamide]"
19,0.01 to 0.49,"CC(C)(C)NC(=O)N1C[C@@H]2[C@@H](CCNC(=O)c3cnc4nccn4c3)[C@@H]2C1 [Example 77, N-(2-((1R,5S,6s)-3-(tert-butylcarbamoyl)-3-azabicyclo[3.1.0]hexan-6-yl)ethyl)imidazo[1,2-a]pyrimidine-6-carboxamide]"
20,0.5 to 0.99,"O=C(NCC[C@@H]1[C@H]2CN(C(=O)Nc3ccccc3)C[C@@H]12)c1cnc2nccn2c1 [Example 78, N-(2-((1R,5S,6s)-3-(phenylcarbamoyl)-3-azabicyclo[3.1.0]hexan-6-yl)ethyl)imidazo[1,2-a]pyrimidine-6-carboxamide]"
21,0.01 to 0.49,"O=C(NCC[C@@H]1[C@H]2CN(C(=O)OC3CCOCC3)C[C@@H]12)c1cnc2nccn2c1 [Example 79, (1R,5S,6s)-tetrahydro-2H-pyran-4-yl 6-(2-(imidazo[1,2-a]pyrimidine-6-carboxamido)ethyl)-3-azabicyclo[3.1.0]hexane-3-carboxylate]"
22,1 to 29,"O=C(NCC[C@@H]1[C@H]2CN(S(=O)(=O)C3CCOCC3)C[C@@H]12)c1cnc2nccn2c1 [Example 80, N-(2-((1R,5S,6s)-3-((tetrahydro-2H-pyran-4-yl)sulfonyl)-3-azabicyclo[3.1.0]hexan-6-yl)ethyl)imidazo[1,2-a]pyrimidine-6-carboxamide]"
23,< 0.01,"CC(C)(C)NC(=O)N1C[C@@H]2[C@@H](CCNC(=O)c3cc(-c4cccnc4)on3)[C@@H]2C1 [Example 81, N-(2-((1R,5S,6s)-3-(tert-butylcarbamoyl)-3-azabicyclo[3.1.0]hexan-6-yl)ethyl)-5-(pyridin-3-yl)isoxazole-3-carboxamide]"
24,0.01 to 0.49,"CC(C)(C)NC(=O)N1C[C@@H]2[C@@H](CCNC(=O)c3cc4cnccc4[nH]3)[C@@H]2C1 [Example 82, N(2-((1R,5S,6s)-3-(tert-butylcarbamoyl)-3-azabicyclo[3.1.0]hexan-6-yl)ethyl)-1H-pyrrolo[3,2-c]pyridine-2-carboxamide]"
25,0.01 to 0.49,"O=C(NCC[C@@H]1[C@H]2CN(C(=O)OC3CCOCC3)C[C@@H]12)c1cc2cnccc2[nH]1 [Example 83, (1R,5S,6s)-tetrahydro-2H-pyran-4-yl 6-(2-(1H-pyrrolo[3,2-c]pyridine-2-carboxamido)ethyl)-3-azabicyclo[3.1.0]hexane-3-carboxylate]"
26,0.5 to 0.99,"O=C(NCC[C@@H]1[C@H]2CN(S(=O)(=O)C3CCOCC3)C[C@@H]12)c1cc2cnccc2[nH]1 [Example 84, N-(2-((1R,5S,6s)-3-((tetrahydro-2H-pyran-4-yl)sulfonyl)-3-azabicyclo[3.1.0]hexan-6-yl)ethyl)-1H-pyrrolo[3,2-c]pyridine-2-carboxamide]"
27,0.01 to 0.49,"Nc1ccc(/C=C/C(=O)NCC[C@@H]2[C@H]3CN(C(=O)c4ccc(F)cc4)C[C@@H]23)cn1 [Example 86, (E)-3-(6-aminopyridin-3-yl)-N-(2-((1R,5S,6s)-3-(4-fluorobenzoyl)-3-azabicyclo[3.1.0]hexan-6-yl)ethyl)acrylamide]"
28,0.01 to 0.49,"Cc1nc(C)c(C(=O)N2C[C@@H]3[C@@H](CCNC(=O)/C=C/c4ccc(N)nc4)[C@@H]3C2)o1 [Example 87, (E)-3-(6-aminopyridin-3-yl)-N-(2-((1R,5S,6s)-3-(2,4-dimethyloxazole-5-carbonyl)-3-azabicyclo[3.1.0]hexan-6-yl)ethyl)acrylamide]"
29,0.01 to 0.49,"Cc1nn(C)c(C)c1C(=O)N1C[C@@H]2[C@@H](CCNC(=O)/C=C/c3ccc(N)nc3)[C@@H]2C1 [Example 88, (E)-3-(6-aminopyridin-3-yl)-N-(2-((1R,5S,6s)-3-(1,3,5-trimethyl-1H-pyrazole-4-carbonyl)-3-azabicyclo[3.1.0]hexan-6-yl)ethyl)acrylamide]"
30,0.01 to 0.49,"Nc1ccc(/C=C/C(=O)NCC[C@@H]2[C@H]3CN(C(=O)c4cccc(F)c4)C[C@@H]23)cn1 [Example 89, (E)-3-(6-aminopyridin-3-yl)-N-(2-((1R,5S,6s)-3-(3-fluorobenzoyl)-3-azabicyclo[3.1.0]hexan-6-yl)ethyl)acrylamide]"

# Same assay, conditions: [HDB]; read-out: NAMPT IC50 (μM) [HDB]
row,IC50 [µM],SMILES
1,0.01 to 0.49,"O=C(NCC[C@@H]1[C@H]2CN(C(=O)OC3CCOCC3)C[C@@H]12)c1cc2ccncc2s1 [Example 85, (1R,5S,6s)-tetrahydro-2H-pyran-4-yl 6-(2-(thieno[2,3-c]pyridine-2-carboxamido)ethyl)-3-azabicyclo[3.1.0]hexane-3-carboxylate]"
